# Results reported in patent US9738644B2, “Chemical compounds, compositions and methods for kinase modulation” (Infinity Pharmaceuticals, Inc., priority 2010, dated 2017).
# Read-outs that look alike come from different tables or passages of the source.
# How the values were obtained:
# PI3K δ = target: T1, PI3K δ (Homo sapiens, UniProt O00329); test: In vitro PI3K δ inhibition assay; type: biochemical
# T1 construct: purchased Upstate
# Procedure: (§1) Class I PI3-Ks can be either purchased (p110α/p85α, p110β/p85α, p110δ/p85α from Upstate, and p110γ from Sigma) or expressed as previously described (Knight et al., 2004). IC50 values are measured using either a standard TLC assay for lipid kinase activity (described below) or a high-throughput membrane capture assay. Kinase reactions are performed by preparing a reaction mixture containing kinase, inhibitor (2% DMSO final concentration), buffer (25 mM HEPES, pH 7.4, 10 mM MgCl2), and freshly sonicated phosphatidylinositol (100 μg/ml). Reactions are initiated by the addition of ATP containing 10 μCi of γ-32P-ATP to a final concentration of 10 or 100 μM and allowed to proceed for 5 minutes at room temperature. For TLC analysis, reactions are then terminated by the addition of 105 μl 1N HCl followed by 160 μl CHCl3:MeOH (1:1). The biphasic mixture is vortexed, briefly centrifuged, and the organic phase is transferred to a new tube using a gel loading pipette tip precoated with CHCl3. This extract is spotted on TLC plates and developed for 3-4 hours in a 65:35 solution of n-propanol:1M acetic acid. The TLC plates are then dried, exposed to a phosphorimager screen (Storm, Amersham), and quantitated. For each compound, kinase activity is measured at 10-12 inhibitor concentrations representing two-fold dilutions from the highest concentration tested (typically, 200 μM). […] Other commercial kits or systems for assaying PI3-K activities are available. The commercially available kits or systems can be used to screen for inhibitors and/or agonists of PI3-Ks including, but not limited to, PI 3-Kinase α, β, δ, and γ. An exemplary system is PI 3-Kinase (human) HTRF™ Assay from Upstate. […] Briefly, the assay is a time resolved FRET assay that indirectly measures PIP3 product formed by the activity of a PI3-K. The kinase reaction is performed in a microtiter plate (e.g., a 384 well microtiter plate). The total reaction volume is approximately 20 μl per well. In the first step, each well receives 2 μl of test compound in 20% dimethylsulphoxide resulting in a 2% DMSO final concentration. Next, approximately 14.5 μl of a kinase/PIP2 mixture (diluted in 1× reaction buffer) is added per well for a final concentration of 0.25-0.3 μg/ml kinase and 10 μM PIP2. The plate is sealed and incubated for 15 minutes at room temperature. To start the reaction, 3.5 μl of ATP (diluted in 1× reaction buffer) is added per well for a final concentration of 10 μM ATP. The plate is sealed and incubated for 1 hour at room temperature. The reaction is stopped by adding 5 μl of Stop Solution per well and then 5 μl of Detection Mix is added per well. The plate is sealed, incubated for 1 hour at room temperature, and then read on an appropriate plate reader. Data is analyzed and IC50s are generated using GraphPad Prism 5.
# PI3K γ = target: T2, PI3K γ (Homo sapiens, UniProt P48736); test: In vitro PI3K γ inhibition assay; type: biochemical
# T2 construct: purchased Sigma
# Procedure: as §1
# PI3K α = target: T3, PI3K α (Homo sapiens, UniProt P42336); test: In vitro PI3K α inhibition assay; type: biochemical
# T3 construct: purchased Upstate
# Procedure: (§2) Class I PI3-Ks can be either purchased (p110α/p85α, p110β/p85α, p110δ/p85α from Upstate, and p110γ from Sigma) or expressed as previously described (Knight et al., 2004). IC50 values are measured using either a standard TLC assay for lipid kinase activity (described below) or a high-throughput membrane capture assay. Kinase reactions are performed by preparing a reaction mixture containing kinase, inhibitor (2% DMSO final concentration), buffer (25 mM HEPES, pH 7.4, 10 mM MgCl2), and freshly sonicated phosphatidylinositol (100 μg/ml). Reactions are initiated by the addition of ATP containing 10 μCi of γ-32P-ATP to a final concentration of 10 or 100 μM and allowed to proceed for 5 minutes at room temperature. For TLC analysis, reactions are then terminated by the addition of 105 μl 1N HCl followed by 160 μl CHCl3:MeOH (1:1). The biphasic mixture is vortexed, briefly centrifuged, and the organic phase is transferred to a new tube using a gel loading pipette tip precoated with CHCl3. This extract is spotted on TLC plates and developed for 3-4 hours in a 65:35 solution of n-propanol:1M acetic acid. The TLC plates are then dried, exposed to a phosphorimager screen (Storm, Amersham), and quantitated. For each compound, kinase activity is measured at 10-12 inhibitor concentrations representing two-fold dilutions from the highest concentration tested (typically, 200 μM).
# (§3) Other commercial kits or systems for assaying PI3-K activities are available. The commercially available kits or systems can be used to screen for inhibitors and/or agonists of PI3-Ks including, but not limited to, PI 3-Kinase α, β, δ, and γ. An exemplary system is PI 3-Kinase (human) HTRF™ Assay from Upstate. […] Briefly, the assay is a time resolved FRET assay that indirectly measures PIP3 product formed by the activity of a PI3-K. The kinase reaction is performed in a microtiter plate (e.g., a 384 well microtiter plate). The total reaction volume is approximately 20 μl per well. In the first step, each well receives 2 μl of test compound in 20% dimethylsulphoxide resulting in a 2% DMSO final concentration. Next, approximately 14.5 μl of a kinase/PIP2 mixture (diluted in 1× reaction buffer) is added per well for a final concentration of 0.25-0.3 μg/ml kinase and 10 μM PIP2. The plate is sealed and incubated for 15 minutes at room temperature. To start the reaction, 3.5 μl of ATP (diluted in 1× reaction buffer) is added per well for a final concentration of 10 μM ATP. The plate is sealed and incubated for 1 hour at room temperature. The reaction is stopped by adding 5 μl of Stop Solution per well and then 5 μl of Detection Mix is added per well. The plate is sealed, incubated for 1 hour at room temperature, and then read on an appropriate plate reader. Data is analyzed and IC50s are generated using GraphPad Prism 5.
# PI3K β = target: T4, PI3K β (Homo sapiens, UniProt P42338); test: In vitro PI3K β inhibition assay; type: biochemical
# T4 construct: purchased Upstate
# Procedure: as §2, §3
# Balb/c splenic B cells = test: B cell activation and proliferation assay (Alamar Blue); type: cell-based; details: Mus musculus
# Procedure: The ability of one or more subject compounds to inhibit B cell activation and proliferation is determined according to standard procedures known in the art. For example, an in vitro cellular proliferation assay is established that measures the metabolic activity of live cells. The assay is performed in a 96 well microtiter plate using Alamar Blue reduction. Balb/c splenic B cells are purified over a Ficoll-Paque™ PLUS gradient followed by magnetic cell separation using a MACS B cell Isolation Kit (Miletenyi). Cells are plated in 90 μl at 50,000 cells/well in B Cell Media (RPMI+10% FBS+Penn/Strep+50 μM bME+5 mM HEPES). A compound disclosed herein is diluted in B Cell Media and added in a 10 μl volume. Plates are incubated for 30 min at 37° C. and 5% CO2 (0.2% DMSO final concentration). A 50 μl B cell stimulation cocktail is then added containing either 10 μg/ml LPS or 5 μg/ml F(ab′)2 Donkey anti-mouse IgM plus 2 ng/ml recombinant mouse IL4 in B Cell Media. Plates are incubated for 72 hours at 37° C. and 5% CO2. A volume of 15 μL of Alamar Blue reagent is added to each well and plates are incubated for 5 hours at 37° C. and 5% CO2. Alamar Blue fluoresce is read at 560Ex/590Em, and IC50 or EC50 values are calculated using GraphPad Prism 5.
# B6.Sle1z.Sle3z model = details: cited from earlier work
# [1] = PBS pH 7.4, 37° C., 24 hours; cited from earlier work
# [2] = reference compounds, 5 μM; cited from earlier work
# [3] = read-out: B cell proliferation EC50
# [4] = read-out: B cell proliferation EC50 (nM)
# T3 sequence (P42336 whole entry): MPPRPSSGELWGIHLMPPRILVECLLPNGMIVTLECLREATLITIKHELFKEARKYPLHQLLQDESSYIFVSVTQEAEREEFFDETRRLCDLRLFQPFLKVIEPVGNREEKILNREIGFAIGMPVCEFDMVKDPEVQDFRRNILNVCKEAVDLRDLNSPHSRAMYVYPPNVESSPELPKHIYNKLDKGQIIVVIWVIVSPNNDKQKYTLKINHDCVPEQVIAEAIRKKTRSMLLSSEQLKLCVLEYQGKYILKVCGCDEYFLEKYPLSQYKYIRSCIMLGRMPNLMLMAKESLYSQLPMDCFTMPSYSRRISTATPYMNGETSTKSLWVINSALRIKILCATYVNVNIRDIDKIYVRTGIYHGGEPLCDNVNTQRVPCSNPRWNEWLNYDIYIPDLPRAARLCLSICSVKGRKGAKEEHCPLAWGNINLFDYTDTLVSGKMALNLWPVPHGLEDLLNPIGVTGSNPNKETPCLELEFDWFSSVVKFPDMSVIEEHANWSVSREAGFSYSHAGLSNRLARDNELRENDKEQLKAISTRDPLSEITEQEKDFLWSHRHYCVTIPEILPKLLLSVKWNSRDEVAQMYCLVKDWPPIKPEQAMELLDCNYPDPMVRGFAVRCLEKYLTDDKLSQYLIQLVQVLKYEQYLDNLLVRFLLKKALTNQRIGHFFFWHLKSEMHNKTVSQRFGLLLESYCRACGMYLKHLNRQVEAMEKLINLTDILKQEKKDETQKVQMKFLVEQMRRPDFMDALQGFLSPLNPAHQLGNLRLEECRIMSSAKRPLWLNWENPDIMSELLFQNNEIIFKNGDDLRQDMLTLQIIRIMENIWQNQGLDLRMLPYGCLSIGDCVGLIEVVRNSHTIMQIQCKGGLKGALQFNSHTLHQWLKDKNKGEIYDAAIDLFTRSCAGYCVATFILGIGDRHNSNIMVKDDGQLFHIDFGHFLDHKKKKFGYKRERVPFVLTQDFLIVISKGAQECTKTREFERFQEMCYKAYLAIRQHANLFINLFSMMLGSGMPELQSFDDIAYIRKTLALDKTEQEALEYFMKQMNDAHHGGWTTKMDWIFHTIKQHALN
# T3 sequence (P27986 whole entry partner): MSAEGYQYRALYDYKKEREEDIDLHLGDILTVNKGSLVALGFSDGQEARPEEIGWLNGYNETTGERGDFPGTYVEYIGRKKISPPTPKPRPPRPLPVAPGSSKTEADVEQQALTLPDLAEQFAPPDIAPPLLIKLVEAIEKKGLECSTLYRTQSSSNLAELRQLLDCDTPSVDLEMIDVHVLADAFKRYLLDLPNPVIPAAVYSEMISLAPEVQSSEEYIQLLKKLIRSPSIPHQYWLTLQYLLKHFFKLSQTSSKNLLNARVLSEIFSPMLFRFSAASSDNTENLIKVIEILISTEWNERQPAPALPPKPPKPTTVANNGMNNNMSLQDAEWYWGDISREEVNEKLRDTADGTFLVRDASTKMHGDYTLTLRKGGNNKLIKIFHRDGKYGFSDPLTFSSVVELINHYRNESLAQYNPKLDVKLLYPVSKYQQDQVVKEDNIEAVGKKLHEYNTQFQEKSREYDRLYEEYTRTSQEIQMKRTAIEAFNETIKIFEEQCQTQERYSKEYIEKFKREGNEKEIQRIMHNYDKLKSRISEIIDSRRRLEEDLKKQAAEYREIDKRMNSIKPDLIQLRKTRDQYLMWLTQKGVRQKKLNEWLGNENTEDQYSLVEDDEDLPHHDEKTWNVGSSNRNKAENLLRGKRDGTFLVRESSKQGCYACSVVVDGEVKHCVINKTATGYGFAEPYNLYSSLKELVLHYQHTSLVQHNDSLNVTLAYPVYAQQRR
# T4 sequence (P42338 whole entry): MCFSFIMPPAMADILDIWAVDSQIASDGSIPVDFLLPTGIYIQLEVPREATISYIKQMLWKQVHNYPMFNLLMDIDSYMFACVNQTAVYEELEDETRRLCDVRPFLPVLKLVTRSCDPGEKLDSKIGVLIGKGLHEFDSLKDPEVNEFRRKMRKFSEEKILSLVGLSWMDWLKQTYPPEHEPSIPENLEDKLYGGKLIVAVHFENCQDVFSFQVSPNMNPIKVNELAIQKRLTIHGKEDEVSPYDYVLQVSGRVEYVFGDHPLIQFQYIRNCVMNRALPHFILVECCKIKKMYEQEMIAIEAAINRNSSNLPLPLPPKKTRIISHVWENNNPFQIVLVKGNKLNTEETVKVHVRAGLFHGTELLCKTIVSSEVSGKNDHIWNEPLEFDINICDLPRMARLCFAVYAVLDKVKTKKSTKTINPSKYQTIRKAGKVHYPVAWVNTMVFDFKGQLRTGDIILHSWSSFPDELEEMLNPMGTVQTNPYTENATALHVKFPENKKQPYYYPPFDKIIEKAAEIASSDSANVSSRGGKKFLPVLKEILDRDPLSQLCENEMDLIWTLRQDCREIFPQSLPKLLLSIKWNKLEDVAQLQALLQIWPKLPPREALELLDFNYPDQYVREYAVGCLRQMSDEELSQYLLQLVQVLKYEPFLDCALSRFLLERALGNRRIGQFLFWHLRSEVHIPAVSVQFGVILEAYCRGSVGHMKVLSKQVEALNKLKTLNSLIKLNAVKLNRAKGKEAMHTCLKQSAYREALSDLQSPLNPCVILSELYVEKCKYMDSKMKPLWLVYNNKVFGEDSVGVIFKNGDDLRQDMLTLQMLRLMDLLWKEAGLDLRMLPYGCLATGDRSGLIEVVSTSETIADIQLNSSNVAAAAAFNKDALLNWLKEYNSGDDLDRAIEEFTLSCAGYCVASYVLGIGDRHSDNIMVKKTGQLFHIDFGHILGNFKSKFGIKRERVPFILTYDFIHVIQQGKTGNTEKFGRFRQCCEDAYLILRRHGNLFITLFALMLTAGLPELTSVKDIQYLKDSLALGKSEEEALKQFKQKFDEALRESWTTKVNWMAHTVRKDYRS
# T4 sequence (P27986 whole entry partner): as the sequence (P27986 whole entry partner) above
# T1 sequence (O00329 whole entry): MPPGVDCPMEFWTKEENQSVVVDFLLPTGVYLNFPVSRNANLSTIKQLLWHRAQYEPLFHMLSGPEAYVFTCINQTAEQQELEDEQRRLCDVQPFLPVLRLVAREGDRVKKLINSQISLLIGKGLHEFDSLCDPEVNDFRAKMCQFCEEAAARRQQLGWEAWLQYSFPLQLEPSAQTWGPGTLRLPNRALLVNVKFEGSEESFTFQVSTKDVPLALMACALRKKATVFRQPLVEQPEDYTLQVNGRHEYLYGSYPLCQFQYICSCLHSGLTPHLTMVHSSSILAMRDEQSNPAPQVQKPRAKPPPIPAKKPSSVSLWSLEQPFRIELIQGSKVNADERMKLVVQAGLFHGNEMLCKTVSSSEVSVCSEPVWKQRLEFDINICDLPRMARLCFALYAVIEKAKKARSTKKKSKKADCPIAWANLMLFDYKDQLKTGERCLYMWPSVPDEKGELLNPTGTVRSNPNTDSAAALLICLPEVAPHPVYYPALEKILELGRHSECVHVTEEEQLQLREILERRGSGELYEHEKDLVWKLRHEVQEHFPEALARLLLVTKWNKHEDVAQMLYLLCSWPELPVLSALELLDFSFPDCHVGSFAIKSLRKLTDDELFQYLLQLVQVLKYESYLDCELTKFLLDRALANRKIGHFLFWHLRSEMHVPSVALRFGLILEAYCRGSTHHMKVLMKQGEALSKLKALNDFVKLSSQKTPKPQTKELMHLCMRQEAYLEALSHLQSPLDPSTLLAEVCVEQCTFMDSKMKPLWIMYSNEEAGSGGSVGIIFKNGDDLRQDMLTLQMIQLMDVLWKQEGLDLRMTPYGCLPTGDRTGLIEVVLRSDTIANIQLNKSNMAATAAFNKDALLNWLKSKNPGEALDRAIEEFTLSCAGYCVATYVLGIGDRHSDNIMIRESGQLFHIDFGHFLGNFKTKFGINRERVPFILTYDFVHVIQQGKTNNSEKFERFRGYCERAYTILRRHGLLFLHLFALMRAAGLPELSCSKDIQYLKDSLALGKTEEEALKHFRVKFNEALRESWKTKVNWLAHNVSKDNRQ
# T1 sequence (P27986 whole entry partner): as the sequence (P27986 whole entry partner) above
# T2 sequence (P48736 whole entry): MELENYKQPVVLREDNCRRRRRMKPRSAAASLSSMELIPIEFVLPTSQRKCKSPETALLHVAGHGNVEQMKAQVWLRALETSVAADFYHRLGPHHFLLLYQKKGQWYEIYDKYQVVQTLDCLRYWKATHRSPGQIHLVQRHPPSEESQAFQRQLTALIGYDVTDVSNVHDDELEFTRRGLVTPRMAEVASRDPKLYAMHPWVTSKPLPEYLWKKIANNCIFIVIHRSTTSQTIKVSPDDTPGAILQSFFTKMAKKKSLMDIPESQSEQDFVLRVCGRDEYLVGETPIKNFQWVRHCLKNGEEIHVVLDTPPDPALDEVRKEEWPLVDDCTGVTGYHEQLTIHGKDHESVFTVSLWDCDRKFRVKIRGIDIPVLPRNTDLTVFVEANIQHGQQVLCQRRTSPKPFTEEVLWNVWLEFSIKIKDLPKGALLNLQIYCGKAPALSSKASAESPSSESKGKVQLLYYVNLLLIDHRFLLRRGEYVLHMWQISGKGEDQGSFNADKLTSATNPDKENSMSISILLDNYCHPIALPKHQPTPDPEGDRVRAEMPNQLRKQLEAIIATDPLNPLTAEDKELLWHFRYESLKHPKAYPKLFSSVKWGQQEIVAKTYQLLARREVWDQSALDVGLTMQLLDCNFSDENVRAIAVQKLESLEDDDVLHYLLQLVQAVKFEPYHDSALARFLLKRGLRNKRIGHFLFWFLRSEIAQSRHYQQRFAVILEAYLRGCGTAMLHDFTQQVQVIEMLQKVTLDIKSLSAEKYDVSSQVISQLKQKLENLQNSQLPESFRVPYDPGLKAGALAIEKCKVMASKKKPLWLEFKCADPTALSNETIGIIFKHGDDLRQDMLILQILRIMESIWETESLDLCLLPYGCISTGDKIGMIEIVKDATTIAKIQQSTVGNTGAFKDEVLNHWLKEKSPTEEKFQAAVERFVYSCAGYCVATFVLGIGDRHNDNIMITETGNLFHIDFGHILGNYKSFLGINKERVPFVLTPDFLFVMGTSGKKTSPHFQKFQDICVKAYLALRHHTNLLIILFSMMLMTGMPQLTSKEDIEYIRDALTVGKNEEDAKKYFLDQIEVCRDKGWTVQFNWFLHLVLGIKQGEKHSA
Structure (SMILES),IC50 (PI3K δ) [nM],IC50 (PI3K γ) [nM],IC50 (PI3K α) [nM],IC50 (PI3K β) [nM],EC50 (Balb/c splenic B cells; [3]) [nM],EC50 (Balb/c splenic B cells; [4]) [nM],lupus symptoms (B6.Sle1z.Sle3z model),chemical stability [1],plasma stability [2]
C[C@@H](Nc1ncnc2[nH]cnc12)c1cc2cccc(-c3cccnc3)c2c(=O)n1-c1ccccc1 (stereo in doubt) [Compound 7],< 100,< 100,< 10000,< 10000,< 100,,,,
"C=Cc1cccc2cc(C(C)Nc3ncnc4[nH]cnc34)n(-c3ccccc3)c(=O)c12 (stereo in doubt) [Compound 8, (S)-3-(1-((9H-purin-6-yl)amino)ethyl)-2-phenyl-8-vinylisoquinolin-1(2H)-one]",< 100,< 100,< 10000,< 10000,< 100,,,,
"CCc1cccc2cc(C(C)Nc3ncnc4[nH]cnc34)n(-c3ccccc3)c(=O)c12 (stereo in doubt) [Compound 9, (S)-3-(1-((9H-purin-6-yl)amino)ethyl)-8-ethyl-2-phenylisoquinolin-1(2H)-one]",< 100,< 100,< 10000,< 10000,< 100,,,,
C[C@@H](Nc1ncnc2[nH]cnc12)c1cc2cccc(-c3cccnc3)c2c(=O)n1C1CC1 (stereo in doubt) [Compound 13],< 100,< 100,< 10000,< 1000,,< 100,,,
"CC(Nc1ncnc2[nH]cnc12)c1cc2cccc(C#N)c2c(=O)n1-c1ccccc1 (stereo in doubt) [Compound 16, (S)-3-(1-((9H-purin-6-yl)amino)ethyl)-1-oxo-2-phenyl-1,2-dihydroisoquinoline-8-carbonitrile]",< 100,< 100,> 10000,< 10000,< 100,,,,
C[C@@H](Nc1ncnc2[nH]cnc12)c1cc2cccc(N(C)C)c2c(=O)n1-c1ccccc1 (stereo in doubt) [Compound 17],< 10000,< 10000,> 10000,> 10000,< 100,,,,
C[C@@H](Nc1ncnc2[nH]cnc12)c1cc2cccc(-c3cc[nH]n3)c2c(=O)n1-c1ccccc1 (stereo in doubt) [Compound 18],< 100,< 100,> 10000,> 10000,< 100,,,,
C[C@@H](Nc1ncnc2[nH]cnc12)c1cc2cccc(-c3cnn(C)c3)c2c(=O)n1-c1ccccc1 (stereo in doubt) [Compound 19],< 100,< 100,> 10000,> 10000,< 100,,,,
C[C@@H](Nc1ncnc2[nH]cnc12)c1cc2cccc(-c3cnn(C)c3)c2c(=O)n1C1CC1 (stereo in doubt) [Compound 20],< 100,< 1000,< 10000,< 10000,< 100,,,,
C[C@@H](Nc1ncnc2[nH]cnc12)c1cc2cccc(-c3ccncc3)c2c(=O)n1-c1ccccc1 (stereo in doubt) [Compound 21],< 100,< 100,< 10000,< 10000,< 100,,,,
C[C@@H](Nc1ncnc2[nH]cnc12)c1cc2cccc(-c3cccc(F)c3)c2c(=O)n1-c1ccccc1 (stereo in doubt) [Compound 25],< 100,< 100,< 10000,< 10000,,< 100,,,
C[C@@H](Nc1ncnc2[nH]cnc12)c1cc2cccc(-c3cn[nH]c3)c2c(=O)n1C1CC1 [Compound 12],< 100,< 100,< 1000,< 1000,< 100,,,,
"CO[C@H]1C[C@@H]2CC[C@@H](C)[C@@](O)(O2)C(=O)C(=O)N2CCCC[C@H]2C(=O)O[C@H]([C@H](C)C[C@@H]2CC[C@@H](OCCO)[C@H](OC)C2)CC(=O)[C@H](C)/C=C(\C)[C@@H](O)[C@@H](OC)C(=O)[C@H](C)C[C@H](C)/C=C/C=C/C=C/1C [RAD001, everolimus]",,,,,,,ameliorate lupus symptoms,,
O=C(O)CCCc1ccc(N(CCCl)CCCl)cc1 [chlorambucil],,,,,,,,largely hydrolyzed over the course of 24 hours,
CC(C)[N+](C)(CCOC(=O)C1c2ccccc2Oc2ccccc21)C(C)C [propantheline],,,,,,,,,intermediate plasma stability
CCCOc1cc(N)ccc1C(=O)OCCN(CC)CC [propoxycaine],,,,,,,,,low plasma stability
